Measurements published in patent publication EP0765868A1, “Substituted bezoyl guanidines, process for their preparation, their use as antiarrhythmics or diagnostic agent as well as pharmaceuticals containing them” (HOECHST AKTIENGESELLSCHAFT, priority 1995, dated 1997).
pIC50: −log10 of the molar value. Structures can show the parent of a compound that is named as a salt.

Key:
Rattenherzen = conditions: isolated animal hearts (rat); Eur. Heart J. 9 (suppl.1): 167 (1988); cited from earlier work
Na^+/H^+-Exchanger = biological target: T1, Na^+/H^+-Exchanger (Oryctolagus cuniculus, UniProt P23791); experiment: Inhibition of the Na+/H+ exchanger of rabbit erythrocytes (amiloride-sensitive Na+ influx, flame photometry); assay type: cell-based, Kaninchen; conditions: Kaninchenerythrocyten; hyperosmolar salt-sucrose medium, pH 7,4, 37°C
T1 construct: den Na^+-Influx in die Erythrocyten via Na^+/H^+-Austausch flammenphotometrisch bestimmen zu können; from tissue; host or cells: Erythrocytes in whole blood from the ear arteries of cholesterol-fed White New Zealand rabbits
From the text: Inhibition des Na^+/H^+-Exchangers von Kaninchenerythrocyten
Weiße Neuseeland-Kaninchen (Ivanovas) erhielten eine Standard-Diät mit 2% Cholesterin für sechs Wochen, um den Na^+/H^+-Austausch zu aktivieren und so den Na^+-Influx in die Erythrocyten via Na^+/H^+-Austausch flammenphotometrisch bestimmen zu können. Das Blut wurde den Ohrarterien entnommen und durch 25 IE Kalium-Heparin ungerinnbar gemacht. Ein Teil jeder Probe wurde zur Doppelbestimmung des Hämatokrits durch Zentrifugieren benutzt. Aliquots von jeweils 100 µl dienten zur Messung des Na^+-Ausgangsgehalts der Erythrocyten.
Um den Amilorid-sensitiven Natrium-Influx zu bestimmen, wurden 100 µl jeder Blutprobe in jeweils 5 ml eines hyperosmolaren Salz-Sucrose-Mediums (mmol/l: 140 NaCl, 3 KCl, 150 Sucrose, 0,1 Ouabain, 20 Tris-hydroxymethylaminomethan) bei pH 7,4 und 37°C inkubiert. Die Erythrocyten wurden danach dreimal mit eiskalter MgCl2-Ouabain-Lösung (mmol/l: 112 MgCl2, 0,1 Ouabain) gewaschen und in 2,0 ml destilliertem Wasser hämolysiert. Der intrazelluläre Natriumgehalt wurde flammenphotometrisch bestimmt.
Der Na^+-Nettoinflux wurde aus der Differenz zwischen Natrium-Ausgangswerten und dem Natriumgehalt der Erythrocyten nach Inkubation errechnet. Der Amilorid-hemmbare Natrium-Influx ergab sich aus der Differenz des Natriumgehalts der Erythrocyten nach Inkubation mit und ohne Amilorid 3 x 10^-4 mol/l. Auf diese Weise wurde auch bei den erfindungsgemäßen Verbindungen verfahren.

T1 sequence (P23791 whole entry): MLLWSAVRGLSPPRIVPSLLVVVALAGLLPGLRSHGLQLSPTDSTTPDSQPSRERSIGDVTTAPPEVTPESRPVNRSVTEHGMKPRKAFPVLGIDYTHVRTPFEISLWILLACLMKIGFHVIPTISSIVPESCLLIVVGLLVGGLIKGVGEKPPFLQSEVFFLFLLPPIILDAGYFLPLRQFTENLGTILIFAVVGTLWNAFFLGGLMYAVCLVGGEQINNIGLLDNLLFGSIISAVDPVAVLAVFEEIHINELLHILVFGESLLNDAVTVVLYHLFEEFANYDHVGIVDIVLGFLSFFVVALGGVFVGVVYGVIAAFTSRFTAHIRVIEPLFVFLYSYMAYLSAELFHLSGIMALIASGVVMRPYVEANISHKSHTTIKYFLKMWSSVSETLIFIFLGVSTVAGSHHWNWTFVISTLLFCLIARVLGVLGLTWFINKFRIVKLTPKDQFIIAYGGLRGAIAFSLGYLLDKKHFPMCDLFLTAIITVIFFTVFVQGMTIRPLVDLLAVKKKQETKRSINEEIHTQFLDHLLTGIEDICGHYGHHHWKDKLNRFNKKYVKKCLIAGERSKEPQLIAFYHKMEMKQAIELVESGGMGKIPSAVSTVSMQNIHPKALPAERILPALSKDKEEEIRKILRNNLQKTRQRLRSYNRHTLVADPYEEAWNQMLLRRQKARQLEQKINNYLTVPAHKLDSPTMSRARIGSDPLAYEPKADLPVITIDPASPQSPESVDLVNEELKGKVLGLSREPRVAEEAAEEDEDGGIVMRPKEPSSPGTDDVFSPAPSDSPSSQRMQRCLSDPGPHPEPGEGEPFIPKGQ

SMILES	künstlich ausgelöstes Kammerflimmern (Rattenherzen)	pIC50 (Na^+/H^+-Exchanger)
N=C(N)NC(=O)c1nc(Cl)c(N)nc1N [Amilorid]	völlig unterdrückt	
NC(N)=NC(=O)c1ccc(F)c(C(O)(O)C(F)(F)F)c1 [Beispiel 2, 4-Fluor-3-(1',1'-Bishydroxy-2',2',2'-trifluor)ethyl-benzoylguanidinhydrochlorid]		6.00
CCN(c1nc(N)c(C(=O)NC(=N)N)nc1Cl)C(C)C [Ethylisopropylamilorid]	Noch potenter als Amilorid	
CC(C)c1ccc(C(=O)N=C(N)N)cc1C(O)(O)C(F)(F)F [Beispiel 3, 4-Isopropyl-3-(1',1'-bis-hydroxy-2',2',2'-trifluor)-ethylbenzoylguanidin-hydrochlorid]		6.52
NC(N)=NC(=O)c1ccc(C(O)(O)C(F)(F)F)cc1 [Beispiel 1, 4-(1',1'-Bishydroxy-2',2',2'-trifluor)-ethyl-benzoylguanidinhydrochlorid]		5.82
